Where two headings read alike, the source gives them in different places.
Assays:
[1] = tested on: NQO1 specific enzyme activity in BEAS-2B cells; test: BEAS-2B NQO1 MTT Assay; type: cell-based; conditions: Homo sapiens
From the text: NAD(P)H:quinone oxidoreductase 1 (NQO1), also called DT diaphorase, is a homodimeric FAD-containing enzyme that catalyzes obligatory NAD(P)H-dependent two-electron reductions of quinones and protects cells against the toxic and neoplastic effects of free radicals and reactive oxygen species arising from one-electron reductions. The transcription of NQO1 is finely regulated by NRF2, and thus NQO1 activity is a good marker for NRF2 activation. On day one, frozen BEAS-2B cells (ATCC) were thawed in a water bath, counted, and re-suspended at a concentration of 250,000 cells/mL. Fifty microliters of cells were plated in 384 well black clear-bottomed plates. Plates were incubated at 37° C., 5% CO2 overnight. On day two, plates were centrifuged and 50 nL of compound or controls were added to the cells. Plates were then incubated at 37° C., 5% CO2 for 48 hours. On day four, medium was aspirated from the plate and crude cell lysates were made by adding 13 uL of 1× Cell Signaling Technologies lysis buffer with 1 Complete, Mini, EDTA-free Protease Inhibitor Tablet (Roche) for each 10 mL of lysis buffer. After lysis plates were incubated for 20 minutes at room temperature. Two microliters of lysate were removed for use in Cell Titer Glo assay (Promega) and MTT cocktail was prepared (Prochaska et. al. 1998) for measurement of NQO1 activity. Fifty microliters of MTT cocktail is added to each well, plate is centrifuged, and analyzed on an Envision plate reader (Perkin Elmer) using Absorbance 570 nm label for 30 minutes. Product formation was measured kinetically and the pEC50 of NQO1 specific activity induction was calculated by plotting the change in absorbance (Delta OD/min) versus the log of compound concentration followed by 3-parameter fitting. pEC50 is the negative log of the EC50.

[2] = target: T1, Keap1 (321-609) Kelch domain / TAMRA-labeled NRF2 peptide (ETGE motif) (Homo sapiens, UniProt Q14145); test: NRF2-Keap1 FP Assay; type: binding; conditions: Keap1 (321-609) 20 nM, Tamra labeled peptide 8 nM
T1 construct: the Kelch domain (321-609) of Keap1 is used
T1 sequence (Q14145 321-609): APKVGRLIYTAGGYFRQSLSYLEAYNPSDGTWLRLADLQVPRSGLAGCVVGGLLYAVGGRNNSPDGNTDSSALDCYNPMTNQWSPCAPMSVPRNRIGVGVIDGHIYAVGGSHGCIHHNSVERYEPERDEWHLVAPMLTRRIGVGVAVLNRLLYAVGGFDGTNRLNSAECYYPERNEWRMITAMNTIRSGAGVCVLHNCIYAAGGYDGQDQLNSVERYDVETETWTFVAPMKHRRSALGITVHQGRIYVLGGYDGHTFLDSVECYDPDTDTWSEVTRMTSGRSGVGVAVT
From the text: One model for the NRF2-Keap1 interaction is through two binding sites in the Neh2 domain on NRF2. The two sites are referred to as the DLG binding motif (latch domain, uM affinity) and the ETGE binding motif (hinge domain, nM affinity). The Keap1 protein consists of an N-terminal region (NTR), a broad complex, tramtrack, and brick a' brac domain (BTB), an intervening region (IVR), a double glycine repeat domain (DGR or Kelch), and a C-terminal region. The DLG and ETGE motifs of NRF2's Neh2 domain bind to the Kelch domain of Keap1 at different affinities. In the Keap1 Kelch fluorescence polarization (FP) assay, a TAMRA-labeled 16mer peptide (AFFAQLQLDEETGEFL) containing the ETGE motif of NRF2 and the Kelch domain (321-609) of Keap1 is used. The assay determines if a compound interferes with the binding between Keap1 […] and the TAMRA-labeled peptide. Binding of TAMRA-labeled NRF2 peptide to Keap1 (321-609) results in a high FP signal. If a compound interferes with the binding between the peptide and the protein, it will cause the assay signal to decrease. Thus, assay signal is inversely proportional to binding inhibition.
100 nl of 100× compound dose response curves (serial 3-fold dilutions) in DMSO were stamped using an Echo liquid handling system (Labcyte) into 384-well low volume black assay plates (Greiner, #784076), with DMSO in columns 6 and 18. The top concentration of compound was located in columns 1 and 13. Keap1 (321-609) was diluted to 40 nM (2×) in 1× assay buffer (50 mM Tris, pH 8.0, 100 mM NaCl, 5 mM MgCl2, 1 mM DTT, 2 mM CHAPS, and 0.005% BSA) and 5 ul was added using a Multidrop Combi (Thermo Electron Corporation) equipped with a metal tip dispenser to all wells of the compound plate, except column 18. Column 18 received only 5 ul of assay buffer. Immediately, 5 uL of 16 nM (2×) of Tamra labeled peptide (AFFAQLQLDEETGEFL, 21st Century Biochemicals) was added to all wells of the plate. The plates were spun at 500 rpm for 1 min, incubated for 1 hr at room temperature, and read on an Analyst GT (Molecular Devices) equipped with excitation (530/25 nm) and emission (580/10 nm) filters designed for Tamra probes. A 561 nm dichroic mirror was also used in the Analyst. The final assay concentrations of Keap1l (321-609) and Tamra labeled peptide were 20 nM and 8 nM, respectively. Fluorescence measurements, represented as mP, were used in the transformation of the data. Compound activity was calculated based on percent inhibition, normalized against controls in the assay (Control 1 contains the Tamra peptide and Keap1 (321-609) together (0% response) and control 2 contains the Tamra peptide alone (100% response)). Data analysis was handled using the software package Abase XE (Surrey, United Kingdom. The % inhibition values were calculated by the equation:
100−(100*((compound response−average control 2)/(average control 1−average control2))).
For calculation of pIC50s, Abase XE used a four parameter equation.
IC50s<1 nM (+++++), IC50s 1 nM-10 nM (++++), IC50s 10-100 nM (+++), IC50s 100 nM-1 μM (++), IC50s 1-10 μM (+), IC50s>10 μM (−), or were not determined (ND).

[3] = NQO1 specific activity induction, BEAS-2B cells, 48 hours, read-out: EC50

Row | SMILES | EC50 [1, 3] [nM] | EC50 [2] [nM] | EC50 ([1]; BEAS-2B, 48 h) [nM]
1 | Cn1cc([C@@H]2C[C@H]2c2c(C(=O)O)cnn2-c2cccc(CN3CC(C)(C)Oc4ccc(F)cc4S3(=O)=O)c2)nn1 (racemic) [Example 5] | 1000 to 10000 | 1 to 10 | 
2 | Cn1cc([C@@H]2C[C@H]2c2c(C(=O)O)cnn2-c2cccc(CN3Cc4ccccc4CC(C)(C)C3)c2)nn1 (racemic) [Example 7] | 100 to 1000 | 10 to 100 | 
3 | Cn1cc([C@@H]2C[C@H]2c2c(C(=O)O)cnn2-c2cccc(CN3Cc4ccccc4OC(C)(C)C3)c2)nn1 (racemic) [Example 8] | 1000 to 10000 | 10 to 100 | 
4 | Cn1cc([C@@H]2C[C@H]2c2c(C(=O)O)cnn2-c2cccc(CN3Cc4ncccc4OC(C)(C)C3)c2)nn1 (racemic) [Example 9] | 100 to 1000 | 10 to 100 | 
5 | Cn1cc([C@@H]2C[C@H]2c2c(C(=O)O)cnn2-c2cccc(CN3Cc4cc(Br)ccc4OC(C)(C)C3)c2)nn1 (racemic) [Example 13] | 100 to 1000 | 1 to 10 | 
6 | CC[C@@H]1CN(Cc2cccc(-n3ncc(C(=O)O)c3[C@@H]3C[C@H]3c3cn(C)nn3)c2)Cc2ccccc2O1 (racemic) [Example 14] |  | 100 to 1000 | 1000 to 10000
7 | C[C@H]1Cc2ccc(C(F)(F)F)cc2S(=O)(=O)N(Cc2cccc(-n3ncc(C(=O)O)c3[C@@H]3C[C@H]3c3cn(C)nn3)c2)C1 (racemic) [Example 16, 1-(3-((4-methyl-1,1-dioxido-8-(trifluoromethyl)-4,5-dihydro-benzo[f][1,2]thiazepin-2(3H)-yl)methyl)phenyl)-5-((trans)-2-(1-methyl-1H-1,2,3-triazol-4-yl)cyclopropyl)-1H-pyrazole-4-carboxylic acid] | 100 to 1000 | 1 to 10 | 
8 | C[C@H]1Cc2ccc(Br)cc2S(=O)(=O)N(Cc2cccc(-n3ncc(C(=O)O)c3[C@@H]3C[C@H]3c3cn(C)nn3)c2)C1 (racemic) [Example 17, 1-(3-((8-bromo-4-methyl-1,1-dioxido-4,5-dihydrobenzo[f][1,2]thiazepin-2(3H)-yl)methyl)phenyl)-5-((trans)-2-(1-methyl-1H-1,2,3-triazol-4-yl)cyclopropyl)-1H-pyrazole-4-carboxylic acid] | 100 to 1000 | 1 to 10 | 
9 | C[C@@H]1Cc2cc(C(F)(F)F)ccc2S(=O)(=O)N(Cc2cccc(-n3ncc(C(=O)O)c3[C@@H]3C[C@H]3c3cn(C)nn3)c2)C1 (racemic) [Example 18, 1-(3-((4-methyl-1,1-dioxido-7-(trifluoromethyl)-4,5-dihydro-benzo[f][1,2]thiazepin-2(3H)-yl)methyl)phenyl)-5-((trans)-2-(1-methyl-1H-1,2,3-triazol-4-yl)cyclopropyl)-1H-pyrazole-4-carboxylic acid] | 10 to 100 | 1 to 10 | 
10 | C[C@H]1Cc2cc(C(F)(F)F)ccc2S(=O)(=O)N(Cc2cccc(-n3ncc(C(=O)O)c3[C@@H]3C[C@H]3c3cn(C)nn3)c2)C1 (racemic) [Example 19, 1-(3-((4-methyl-1,1-dioxido-7-(trifluoromethyl)-4,5-dihydro-benzo[f][1,2]thiazepin-2(3H)-yl)methyl)phenyl)-5-((trans)-2-(1-methyl-1H-1,2,3-triazol-4-yl)cyclopropyl)-1H-pyrazole-4-carboxylic acid] | 1000 to 10000 | 100 to 1000 | 
11 | Cn1cc([C@@H]2C[C@H]2c2c(C(=O)O)cnn2-c2cccc(Cn3ccnc3CC3CCCCCC3)c2)nn1 (racemic) [Example 23] | 100 to 1000 | 1 to 10 | 
12 | Cn1cc([C@@H]2C[C@H]2c2c(C(=O)O)cnn2-c2cccc(Cn3ccnc3CN3CCCCC3)c2)nn1 (racemic) [Example 24] | 1000 to 10000 | 10 to 100 | 
13 | CCCCCCN(Cc1cccc(-n2ncc(C(=O)O)c2[C@@H]2C[C@H]2c2cn(C)nn2)c1)S(=O)(=O)c1cccc(-c2ccccc2)c1 (racemic) [Example 34, 1-(3-((N-hexyl-[1,1′-biphenyl]-3-ylsulfonamido)methyl)phenyl)-5-((trans)-2-(1-methyl-1H-1,2,3-triazol-4-yl)cyclopropyl)-1H-pyrazole-4-carboxylic acid] | 10 to 100 | 1 to 10 | 
14 | CN(Cc1cccc(-n2ncc(C(=O)O)c2[C@@H]2C[C@H]2c2cn(C)nn2)c1)S(=O)(=O)c1cccc(Oc2ccccc2)c1 (racemic) [Example 35, 5-((trans)-2-(1-methyl-1H-1,2,3-triazol-4-yl)cyclo-propyl)-1-(3-((N-methyl-3-phenoxy-phenyl-sulfonamido)-methyl)phenyl)-1H-pyrazole-4-carboxylic acid] | 1000 to 10000 | 10 to 100 | 
15 | CCCCCCN(Cc1cccc(-n2ncc(C(=O)O)c2[C@@H]2C[C@H]2c2cn(C)nn2)c1)S(=O)(=O)c1ccccc1C (racemic) [Example 37, 1-(3-((N-hexyl-2-methylphenylsulfonamido)methyl)phenyl)-5-((trans)-2-(1-methyl-1H-1,2,3-triazol-4-yl)cyclo-propyl)-1H-pyrazole-4-carboxylic acid] | 10 to 100 | 10 to 100 | 
16 | COc1ccc(Cl)cc1S(=O)(=O)N(C)Cc1cccc(-n2ncc(C(=O)O)c2[C@@H]2C[C@H]2c2cn(C)nn2)c1 (racemic) [Example 40, 1-(3-((5-chloro-2-methoxy-N-methylphenyl-sulfonamido)-methyl)phenyl)-5-((trans)-2-(1-methyl-1H-1,2,3-triazol-4-yl)cyclo-propyl)-1H-pyrazole-4-carboxylic acid] | 1000 to 10000 | 100 to 1000 | 
17 | CN(Cc1cccc(-n2ncc(C(=O)O)c2[C@@H]2C[C@H]2c2cn(C)nn2)c1)S(=O)(=O)c1c(Cl)cccc1C(F)(F)F (racemic) [Example 41, 1-(3-((2-chloro-N-methyl-6-(trifluoro-methyl)phenyl-sulfonamido)-methyl)phenyl)-5-((trans)-2-(1-methyl-1H-1,2,3-triazol-4-yl)cyclo-propyl)-1H-pyrazole-4-carboxylic acid] | 1000 to 10000 | 100 to 1000 | 
18 | Cc1ccccc1S(=O)(=O)N(C)Cc1cccc(-n2ncc(C(=O)O)c2[C@@H]2C[C@H]2c2cn(C)nn2)c1 (racemic) [Example 42, 1-(3-((N,2-dimethylphenylsulfonamido)methyl)phenyl)-5-((trans)-2-(1-methyl-1H-1,2,3-triazol-4-yl)cyclopropyl)-1H-pyrazole-4-carboxylic acid] | 1000 to 10000 | 100 to 1000 | 

From patent US20200071310A1, “N-ARYL PYRAZOLES AS NRF2 REGULATORS” (GLAXOSMITHKLINE INTELLECTUAL PROPERTY DEVELOPMENT LIMITED, priority 2016, published 2020)
